# According to ChEMBL document CHEMBL5537162, “Development of Antibacterial Peptides with Membrane Disruption and Folate Pathway Inhibitory Activities against Methicillin-Resistant Staphylococcus aureus” (J Med Chem, 2024):
# Active and inactive are the calls of the source. The calls are words filed in the database; no cut-off is given here.
# Experiments:
# Staphylococcus aureus [1] = assay: Antibacterial activity against methicillin-resistant Staphylococcus aureus 18908 assessed as bacterial growth inhibition incubated for 24 hrs by CLSI based micro-broth dilution assay; format: functional
# Staphylococcus aureus [2] = assay: Antibacterial activity against methicillin-resistant Staphylococcus aureus 18567 assessed as bacterial growth inhibition incubated for 24 hrs by CLSI based micro-broth dilution assay; format: functional
# Staphylococcus aureus [3] = assay: Antibacterial activity against methicillin-resistant Staphylococcus aureus 18466 assessed as bacterial growth inhibition incubated for 24 hrs by CLSI based micro-broth dilution assay; format: functional
# Staphylococcus aureus [4] = assay: Antibacterial activity against methicillin-resistant Staphylococcus aureus 19167 assessed as bacterial growth inhibition incubated for 24 hrs by CLSI based micro-broth dilution assay; format: functional
# Staphylococcus aureus [5] = assay: Antibacterial activity against methicillin-resistant Staphylococcus aureus 18878 assessed as bacterial growth inhibition incubated for 24 hrs by CLSI based micro-broth dilution assay; format: functional
# Staphylococcus aureus [6] = assay: Antibacterial activity against methicillin-resistant Staphylococcus aureus 18858 assessed as bacterial growth inhibition incubated for 24 hrs by CLSI based micro-broth dilution assay; format: functional
# Staphylococcus aureus [7] = assay: Antibacterial activity against methicillin-resistant Staphylococcus aureus 19423 assessed as bacterial growth inhibition incubated for 24 hrs by CLSI based micro-broth dilution assay; format: functional
# Staphylococcus aureus [8] = assay: Antibacterial activity against Methicillin-resistant Staphylococcus aureus infected in ICR mouse skin infection model assessed as reduction in skin abscess volume; format: functional, organism-based
# Staphylococcus aureus [9] = assay: Antibacterial activity against methicillin-resistant Staphylococcus aureus 19047 assessed as bacterial growth inhibition incubated for 24 hrs by CLSI based micro-broth dilution assay; format: functional
# Staphylococcus aureus [10] = assay: Antibacterial activity against methicillin-resistant Staphylococcus aureus 19498 assessed as bacterial growth inhibition incubated for 24 hrs by CLSI based micro-broth dilution assay; format: functional
# Staphylococcus aureus [11] = assay: Antibacterial activity against methicillin-resistant Staphylococcus aureus 18475 assessed as bacterial growth inhibition incubated for 24 hrs by CLSI based micro-broth dilution assay; format: functional
# [12] = Antiproliferative activity against HEK293T cells assessed as reduction in cell viability measured for 48 hrs by MTT assay; format: toxicity, cell-based, HEK-293T; details: human
# Erythrocyte = assay: (§1) Hemolytic activity in mouse RBC assessed as hemolysis incubated for 1 hrs by spectrophotometric analysis; format: toxicity, cell-based; details: erythrocyte, 1 h
# [13] = as §1; format: toxicity, cell-based, Erythrocyte; details: mouse red blood cells (erythrocytes)
# [14] = Hemolytic activity in mouse RBC assessed as hemolysis at 320 uM incubated for 1 hrs by spectrophotometric analysis relative to control; format: toxicity, cell-based, Erythrocyte; details: mouse red blood cells (erythrocytes), read-out: %max
# Staphylococcus aureus [15] = assay: Antibacterial activity against Methicillin-resistant Staphylococcus aureus infected in ICR mouse skin infection model assessed as reduction in inflammatory infiltration at 5 mg/kg, sc by H and E staining based microscopic analysis; format: functional, organism-based
# Staphylococcus aureus [16] = assay: Antibacterial activity against Methicillin-resistant Staphylococcus aureus infected in ICR mouse skin infection model assessed as reduction in bacterial content at 5 mg/kg, sc measured upto 10 days; format: functional, organism-based; details: time <= 10.0 day
# [17] = Selectivity index, ratio of IC50 for antiproliferative activity against HEK293T cells assessed as reduction in cell viability to MIC for antibacterial activity against methicillin-resistant Staphylococcus aureus assessed as bacterial growth inhibition; format: toxicity, cell-based; details: human, read-out: Selectivity Index
# Staphylococcus aureus [18] = assay: Antibacterial activity against methicillin-resistant Staphylococcus aureus assessed as bacterial growth inhibition incubated for 24 hrs by CLSI based micro-broth dilution assay; format: functional
# HEK-293T = assay: Antiproliferative activity against HEK293T cells assessed as reduction in cell viability at 2.5 to 320 uM measured for 48 hrs by MTT assay relative to control; format: toxicity, cell-based; details: human, dose 2.5-320 µM
compound,measurement,setting,value
COc1cccc(OC)c1C(=O)N[C@@H]1C(=O)N2[C@@H]1SC(C)(C)[C@@H]2C(=O)O [METHICILLIN],MIC,Staphylococcus aureus [1],> 480 µM
same,MIC,Staphylococcus aureus [2],> 480 µM
same,MIC,Staphylococcus aureus [3],> 480 µM
same,MIC,Staphylococcus aureus [4],> 480 µM
same,MIC,Staphylococcus aureus [5],> 480 µM
same,MIC,Staphylococcus aureus [6],> 480 µM
same,MIC,Staphylococcus aureus [7],> 480 µM
same,Activity,Staphylococcus aureus [8],Active
same,MIC,Staphylococcus aureus [9],> 480 µM
same,MIC,Staphylococcus aureus [10],> 480 µM
same,MIC,Staphylococcus aureus [11],> 480 µM
Cc1onc(-c2ccccc2)c1C(=O)N[C@@H]1C(=O)N2[C@@H]1SC(C)(C)[C@@H]2C(=O)O [OXACILLIN],MIC,Staphylococcus aureus [1],> 480 µM
same,MIC,Staphylococcus aureus [2],> 480 µM
same,MIC,Staphylococcus aureus [3],> 480 µM
same,MIC,Staphylococcus aureus [4],> 480 µM
same,MIC,Staphylococcus aureus [5],> 480 µM
same,MIC,Staphylococcus aureus [6],> 480 µM
same,MIC,Staphylococcus aureus [7],> 480 µM
same,MIC,Staphylococcus aureus [9],> 480 µM
same,MIC,Staphylococcus aureus [10],> 480 µM
same,MIC,Staphylococcus aureus [11],> 480 µM
CN[C@H](CC(C)C)C(=O)N[C@H]1C(=O)N[C@@H](CC(N)=O)C(=O)N[C@H]2C(=O)N[C@H]3C(=O)N[C@H](C(=O)N[C@H](C(=O)O)c4cc(O)cc(O)c4-c4cc3ccc4O)[C@H](O)c3ccc(c(Cl)c3)Oc3cc2cc(c3O[C@@H]2O[C@H](CO)[C@@H](O)[C@H](O)[C@H]2O[C@H]2C[C@](C)(N)[C@H](O)[C@H](C)O2)Oc2ccc(cc2Cl)[C@H]1O [VANCOMYCIN],MIC,Staphylococcus aureus [1],1 µM
same,MIC,Staphylococcus aureus [2],1 µM
same,MIC,Staphylococcus aureus [3],1 µM
same,IC50 at 48 h,[12],> 320 µM
same,MIC,Staphylococcus aureus [4],1 µM
same,MIC,Staphylococcus aureus [5],1 µM
same,HC10,Erythrocyte,> 320 µM
same,HC50 at 1 h,[13],> 320 µM
same,MIC,Staphylococcus aureus [6],1 µM
same,MIC,Staphylococcus aureus [7],1 µM
same,"hemolysis at 1 h, 320 µM",[14],6.24%
same,MIC,Staphylococcus aureus [9],1 µM
same,MIC,Staphylococcus aureus [10],1 µM
same,Activity,Staphylococcus aureus [15],Active
same,MIC,Staphylococcus aureus [11],1 µM
same,Activity,Staphylococcus aureus [16],Active
same,selectivity ratio,[17],320
same,MIC,Staphylococcus aureus [18],1 µM
H-KARVAVKVIRFLYKAW-NH2,IC50 at 48 h,[12],> 320 µM
same,HC10,Erythrocyte,> 320 µM
same,HC50 at 1 h,[13],> 320 µM
same,"hemolysis at 1 h, 320 µM",[14],6.36%
same,selectivity ratio,[17],26.7
same,MIC,Staphylococcus aureus [18],12 µM
H-KARVSVKVTASLSKAW-NH2,IC50 at 48 h,[12],> 320 µM
same,HC10,Erythrocyte,> 320 µM
same,HC50 at 1 h,[13],> 320 µM
same,"hemolysis at 1 h, 320 µM",[14],7.57%
same,selectivity ratio,[17],6.67
same,MIC,Staphylococcus aureus [18],> 48 µM
H-KASVSVKVTASLSKAW-NH2,IC50 at 48 h,[12],> 320 µM
same,HC10,Erythrocyte,> 320 µM
same,HC50 at 1 h,[13],> 320 µM
same,"hemolysis at 1 h, 320 µM",[14],7.51%
same,selectivity ratio,[17],6.67
same,MIC,Staphylococcus aureus [18],> 48 µM
H-KASVSVKVTASLSKAWTNSQ-NH2,IC50 at 48 h,[12],> 320 µM
same,HC10,Erythrocyte,> 320 µM
same,HC50 at 1 h,[13],> 320 µM
same,"hemolysis at 1 h, 320 µM",[14],6.24%
same,selectivity ratio,[17],6.67
same,MIC,Staphylococcus aureus [18],> 48 µM
H-KGVIFAKASVSVKVTASLSKAWTNSQ-NH2,IC50 at 48 h,[12],> 320 µM
same,HC10,Erythrocyte,> 320 µM
same,HC50 at 1 h,[13],> 320 µM
same,"hemolysis at 1 h, 320 µM",[14],5.92%
same,selectivity ratio,[17],6.67
same,MIC,Staphylococcus aureus [18],> 48 µM
H-LFRVVRRVVRFIRRAA-NH2,IC50 at 48 h,[12],> 320 µM
same,HC10,Erythrocyte,> 320 µM
same,HC50 at 1 h,[13],> 320 µM
same,"hemolysis at 1 h, 320 µM",[14],7.53%
same,selectivity ratio,[17],26.7
same,MIC,Staphylococcus aureus [18],12 µM
H-LRPLARRPIRRIRRAW-NH2,IC50 at 48 h,[12],> 320 µM
same,HC10,Erythrocyte,> 320 µM
same,HC50 at 1 h,[13],> 320 µM
same,"hemolysis at 1 h, 320 µM",[14],8.74%
same,selectivity ratio,[17],6.67
same,MIC,Staphylococcus aureus [18],> 48 µM
H-LRRFARRLIRRIRRAW-NH2,IC50 at 48 h,[12],> 320 µM
same,HC10,Erythrocyte,> 320 µM
same,HC50 at 1 h,[13],> 320 µM
same,"hemolysis at 1 h, 320 µM",[14],7.16%
same,selectivity ratio,[17],26.7
same,MIC,Staphylococcus aureus [18],12 µM
H-RARVAVRVIRFLYRAW-NH2,IC50 at 48 h,[12],> 320 µM
same,HC10,Erythrocyte,320 µM
same,HC50 at 1 h,[13],> 320 µM
same,"hemolysis at 1 h, 320 µM",[14],9.34%
same,selectivity ratio,[17],26.7
same,MIC,Staphylococcus aureus [18],12 µM
H-RARVRVRVRRFLRRRW-NH2,IC50 at 48 h,[12],> 320 µM
same,HC10,Erythrocyte,320 µM
same,HC50 at 1 h,[13],> 320 µM
same,"hemolysis at 1 h, 320 µM",[14],11.3%
same,selectivity ratio,[17],6.67
same,MIC,Staphylococcus aureus [18],> 48 µM
H-RRFFVRRVFFRRRRFF-OH,IC50 at 48 h,[12],> 320 µM
same,HC10,Erythrocyte,41.05 µM
same,HC50 at 1 h,[13],> 320 µM
same,"hemolysis at 1 h, 320 µM",[14],30.1%
same,Activity,HEK-293T,59.65%
same,selectivity ratio,[17],6.67
same,MIC,Staphylococcus aureus [18],48 µM
H-RRPLARPLIRFIRRPW-NH2,IC50 at 48 h,[12],> 320 µM
same,HC10,Erythrocyte,> 320 µM
same,HC50 at 1 h,[13],> 320 µM
same,"hemolysis at 1 h, 320 µM",[14],7.57%
same,selectivity ratio,[17],6.67
same,MIC,Staphylococcus aureus [18],> 48 µM
H-RRRVARRVFWFVRRAV-NH2,IC50 at 48 h,[12],> 320 µM
same,HC10,Erythrocyte,> 320 µM
same,HC50 at 1 h,[13],> 320 µM
same,"hemolysis at 1 h, 320 µM",[14],8.25%
same,selectivity ratio,[17],13.3
same,MIC,Staphylococcus aureus [18],24 µM
H-RRRVARRVIRFIRRAW-NH2,IC50 at 48 h,[12],> 320 µM
same,HC10,Erythrocyte,320 µM
same,HC50 at 1 h,[13],> 320 µM
same,"hemolysis at 1 h, 320 µM",[14],10.2%
same,selectivity ratio,[17],26.7
same,MIC,Staphylococcus aureus [18],12 µM
H-RRRWARRIIWIIRRAW-NH2,IC50 at 48 h,[12],> 320 µM
same,HC10,Erythrocyte,> 320 µM
same,HC50 at 1 h,[13],> 320 µM
same,"hemolysis at 1 h, 320 µM",[14],8.66%
same,selectivity ratio,[17],13.3
same,MIC,Staphylococcus aureus [18],24 µM
H-RRWIARRAIWRRRRWW-NH2,IC50 at 48 h,[12],> 320 µM
same,HC10,Erythrocyte,92.35 µM
same,HC50 at 1 h,[13],> 320 µM
same,"hemolysis at 1 h, 320 µM",[14],17.2%
same,Activity,HEK-293T,58.94%
same,selectivity ratio,[17],6.67
same,MIC,Staphylococcus aureus [18],48 µM
H-RRWWWRRWWWRRRRWW-NH2,IC50 at 48 h,[12],> 320 µM
same,HC10,Erythrocyte,25.91 µM
same,HC50 at 1 h,[13],> 320 µM
same,"hemolysis at 1 h, 320 µM",[14],51.3%
same,Activity,HEK-293T,55.74%
same,selectivity ratio,[17],6.67
same,MIC,Staphylococcus aureus [18],48 µM
H-WARIARRAIRAWRRWW-NH2,IC50 at 48 h,[12],> 320 µM
same,HC10,Erythrocyte,75.19 µM
same,HC50 at 1 h,[13],> 320 µM
same,"hemolysis at 1 h, 320 µM",[14],20.1%
same,Activity,HEK-293T,62.65%
same,selectivity ratio,[17],26.7
same,MIC,Staphylococcus aureus [18],12 µM
H-WRWWRRRRWWRWRRWW-NH2,IC50 at 48 h,[12],> 320 µM
same,HC10,Erythrocyte,33.2 µM
same,HC50 at 1 h,[13],> 320 µM
same,"hemolysis at 1 h, 320 µM",[14],40.3%
same,Activity,HEK-293T,59.04%
same,selectivity ratio,[17],6.67
same,MIC,Staphylococcus aureus [18],48 µM
